Key:
Format in all cases: in vivo
Galium spurium = assay: Test Example 5: herbicidal effect by foliage application, plastic box (symbol Q); conditions: 320 g/ha, 3 weeks after application
Method in brief: (§1)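 Leaf-applied emulsion, water-diluted to a preset herbicide dose, on two-week-old seedlings raised in a 25° C. to 30° C. greenhouse; injury rated at 3 weeks using earlier criteria.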

soybean [1] = assay: Test Example 5: effect on crop by foliage application, plastic box (symbol d); conditions: 320 g/ha, 3 weeks after application
Method in brief: (§2)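 Sterilized diluvial soil, plastic box (21 × 13 × 7 cm); spot sowing, ~1.5 cm soil cover; greenhouse 25–30° C.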

Digitaria ciliaris = assay: Test Example 4: herbicidal effect by soil treatment (symbol F); conditions: for F: Digitaria ciliaris, herbicidal effect grade: 320 g/ha
Method in brief: (§3)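 Seeds were sown in sterilized diluvial soil, covered with about 1.5 cm of soil, and the soil surface was sprayed with a water-diluted emulsion of the compound at a predetermined rate. Plants grew in a greenhouse at 25° C. to 30° C.; effects were scored visually 3 weeks after application.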

Scirpus juncoides = assay: Test Example 1: herbicidal activity, application before weed generation in submerged conditions (symbol B); conditions: application herbicide amount 320 g/ha
Method in brief: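 Steps: alluvial soil flooded to 4 cm; weed seeds sown together; rice seedlings (2.5 leaf) transplanted; diluted emulsion applied to water surface the same day as sowing; plants grown at 25–30 °C in greenhouse; herbicidal effect rated on a 0–5 scale at 3 weeks.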

Setaria viridis [2] = assay: Test Example 5: herbicidal effect by foliage application, plastic box (symbol G); conditions: 320 g/ha, 3 weeks after application
Method in brief: as §1

[3] = system: directly sowed rice plant; assay: Test Example 3: effect on crop by foliage application, Wagner pot (symbol b); conditions: application herbicide amount 320 g/ha
Method in brief: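 Plants are raised from seed in flooded paddy conditions: water stands 0.1–0.5 cm over alluvial soil, and the pot is kept in a greenhouse at 25–30 °C. Species sown are barnyardgrass (E. crus-galli var. crus-galli), Leptochloa chinensis, Cyperus difformis and rice.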

[4] = system: Echinochloa crus-galli var. crus-galli; assay: Test Example 5: herbicidal effect by foliage application, plastic box (symbol H); conditions: 320 g/ha, 3 weeks after application
Method in brief: as §1

beet = assay: Test Example 5: effect on crop by foliage application, plastic box (symbol f); conditions: 320 g/ha, 3 weeks after application
Method in brief: as §2

Veronica persica = assay: Test Example 4: herbicidal effect by soil treatment (symbol R); conditions: for R: Veronica persica, herbicidal effect grade: 320 g/ha
Method in brief: as §3

Monochoria vaginalis = assay: Test Example 2: herbicidal activity, application during weed generation in submerged conditions (symbol C); conditions: Table 23; application herbicide amount 320 g/ha; grade 0-5 by criteria of Test Example 1
Method in brief: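 Paddy pot test, submerged (4 cm water), alluvial soil, mixed sowing; greenhouse 25–30° C. Emulsion formulation diluted to predetermined rate, applied onto floodwater at 1–2 leaf stage. Visual herbicidal rating at 3 wk post-treatment.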

[5] = system: Echinochloa crus-galli var. crus-galli; assay: Test Example 4: herbicidal effect by soil treatment (symbol H); conditions: for H: Echinochloa crus-galli var. crus-galli, herbicidal effect grade: 320 g/ha
Method in brief: as §3

soybean [6] = assay: Test Example 4: effect on crop by soil treatment (symbol d); conditions: for d: soybean, effect grade on crop: 320 g/ha
Method in brief: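 Soil-treatment setup: crop and weed seeds were spot-sown into sterilized diluvial soil, then buried beneath approximately 1.5 cm of it, and the boxes were housed in a 25–30° C. greenhouse.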

Stellaria media = assay: Test Example 4: herbicidal effect by soil treatment (symbol P); conditions: for P: Stellaria media, herbicidal effect grade: 320 g/ha
Method in brief: as §3

rapeseed = assay: Test Example 5: effect on crop by foliage application, plastic box (symbol g); conditions: 320 g/ha, 3 weeks after application
Method in brief: as §2

Setaria viridis [7] = assay: Test Example 4: herbicidal effect by soil treatment (symbol G); conditions: for G: Setaria viridis, herbicidal effect grade: 320 g/ha
Method in brief: as §3

[8] = application herbicide amount 320 g/ha

SMILES | Q: Galium spurium, herbicidal effect (criteria 0-5) (Galium spurium) | d: soybean, effect on crop (criteria 0-5) (soybean [1]) | F: Digitaria ciliaris, herbicidal effect grade (Digitaria ciliaris) | Herbicidal effect grade, B: Scirpus juncoides (Scirpus juncoides) | G: Setaria viridis, herbicidal effect (criteria 0-5) (Setaria viridis [2]) | effect on crop b (directly sowed rice plant), grade 0-5 [3] | H: Echinochloa crus-galli var. crus-galli, herbicidal effect (criteria 0-5) [4] | f: beet, effect on crop (criteria 0-5) (beet) | R: Veronica persica, herbicidal effect grade (Veronica persica) | Herbicidal effect grade, C: Monochoria vaginalis (Monochoria vaginalis) | H: Echinochloa crus-galli var. crus-galli, herbicidal effect grade [5] | d: soybean, effect grade on crop (soybean [6]) | P: Stellaria media, herbicidal effect grade (Stellaria media) | g: rapeseed, effect on crop (criteria 0-5) (rapeseed) | G: Setaria viridis, herbicidal effect grade (Setaria viridis [7]) | Q: Galium spurium, herbicidal effect grade (Galium spurium) | d: soybean, effect on crop grade (soybean [1]) | G: Setaria viridis, herbicidal effect grade (Setaria viridis [2]) | H: Echinochloa crus-galli var. crus-galli, herbicidal effect grade [4] | f: beet, effect on crop grade (beet) | also measured
CON=C(C)CC1CC(OC(=O)C(CSC)=NOC)=C(c2c(C)cc(C)cc2C)C1=O (stereo not drawn) [1-098] | 0 (Herbicidal ratio of 5% or lower (almost no effect)) | 3 (Herbicidal ratio of 40% or higher and lower than 70%) | 5 (Herbicidal ratio of 90% or more (almost completely withered)) | 5 (Herbicidal ratio of 90% or more (almost completely withered)) | 5 (Herbicidal ratio of 90% or more (almost completely withered)) | 5 (Herbicidal ratio of 90% or more (almost completely withered)) | 5 (Herbicidal ratio of 90% or more (almost completely withered)) | 1 (Herbicidal ratio of 5% or higher and lower than 20%) | 0 (Herbicidal ratio of 5% or lower (almost no effect)) | 3 (Herbicidal ratio of 40% or higher and lower than 70%) | 5 (Herbicidal ratio of 90% or more (almost completely withered)) | 2 (Herbicidal ratio of 20% or higher and lower than 40%) | 0 (Herbicidal ratio of 5% or lower (almost no effect)) | 5 (Herbicidal ratio of 90% or more (almost completely withered)) | 5 (Herbicidal ratio of 90% or more (almost completely withered)) |  |  |  |  |  | 
CCCON=C(C)CC1CC(O)=C(c2c(C)cc(C)cc2C)C1=O (stereo not drawn) [1-123] | 0 (Herbicidal ratio of 5% or lower (almost no effect)) | 2 (Herbicidal ratio of 20% or higher and lower than 40%) | 5 (Herbicidal ratio of 90% or more (almost completely withered)) | 4 (Herbicidal ratio of 70% or higher and lower than 90%) | 5 (Herbicidal ratio of 90% or more (almost completely withered)) | 5 (Herbicidal ratio of 90% or more (almost completely withered)) | 5 (Herbicidal ratio of 90% or more (almost completely withered)) | 0 (Herbicidal ratio of 5% or lower (almost no effect)) | 0 (Herbicidal ratio of 5% or lower (almost no effect)) | 2 (Herbicidal ratio of 20% or higher and lower than 40%) | 5 (Herbicidal ratio of 90% or more (almost completely withered)) | 0 (Herbicidal ratio of 5% or lower (almost no effect)) | 0 (Herbicidal ratio of 5% or lower (almost no effect)) | 5 (Herbicidal ratio of 90% or more (almost completely withered)) | 5 (Herbicidal ratio of 90% or more (almost completely withered)) |  |  |  |  |  | 
CON=C(C)CC1CC(OS(C)(=O)=O)=C(c2c(C)cc(C)cc2C)C1=O (stereo not drawn) [1-006] |  |  |  | 3 (Herbicidal ratio of 40% or higher and lower than 70%) |  | 5 (Herbicidal ratio of 90% or more (almost completely withered)) |  |  |  | 3 (Herbicidal ratio of 40% or higher and lower than 70%) |  |  |  |  |  | 0 (Herbicidal ratio of 5% or lower (almost no effect)) | 4 (Herbicidal ratio of 70% or higher and lower than 90%) | 5 (Herbicidal ratio of 90% or more (almost completely withered)) | 5 (Herbicidal ratio of 90% or more (almost completely withered)) | 0 (Herbicidal ratio of 5% or lower (almost no effect)) | F (Digitaria ciliaris) herbicidal effect grade (Digitaria ciliaris; [8]): 5 (Herbicidal ratio of 90% or more (almost completely withered)); R (Veronica persica) herbicidal effect grade (Veronica persica; [8]): 0 (Herbicidal ratio of 5% or lower (almost no effect)); H (Echinochloa crus-galli var. crus-galli) herbicidal effect grade [5, 8]: 5 (Herbicidal ratio of 90% or more (almost completely withered)); d (soybean) effect on crop grade (soybean [6]; [8]): 0 (Herbicidal ratio of 5% or lower (almost no effect)); P (Stellaria media) herbicidal effect grade (Stellaria media; [8]): 0 (Herbicidal ratio of 5% or lower (almost no effect)); g: rapeseed, effect on crop grade (rapeseed): 3 (Herbicidal ratio of 40% or higher and lower than 70%); G (Setaria viridis) herbicidal effect grade (Setaria viridis [7]; [8]): 4 (Herbicidal ratio of 70% or higher and lower than 90%)
CON=C(C)CC1(C)CC(O)=C(c2c(C)cc(C)cc2C)C1=O (mixture of isomers) [11-002] |  |  |  |  |  |  |  |  |  | 0 (Herbicidal ratio of 5% or lower (almost no effect)) |  |  |  |  |  | 0 (Herbicidal ratio of 5% or lower (almost no effect)) | 1 (Herbicidal ratio of 5% or higher and lower than 20%) | 4 (Herbicidal ratio of 70% or higher and lower than 90%) | 5 (Herbicidal ratio of 90% or more (almost completely withered)) | 0 (Herbicidal ratio of 5% or lower (almost no effect)) | Herbicidal effect grade, F: Digitaria ciliaris (Digitaria ciliaris; [8]): 0 (Herbicidal ratio of 5% or lower (almost no effect)); B (Scirpus juncoides) herbicidal effect grade (Scirpus juncoides): 0 (Herbicidal ratio of 5% or lower (almost no effect)); b (directly sowed rice plant) effect on crop grade ([3]; Table 24): 5 (Herbicidal ratio of 90% or more (almost completely withered)); Herbicidal effect grade, R: Veronica persica (Veronica persica; [8]): 0 (Herbicidal ratio of 5% or lower (almost no effect)); Herbicidal effect grade, H: Echinochloa crus-galli var. crus-galli [5, 8]: 3 (Herbicidal ratio of 40% or higher and lower than 70%); Effect on crop grade, d: soybean (soybean [6]; [8]): 0 (Herbicidal ratio of 5% or lower (almost no effect)); Herbicidal effect grade, P: Stellaria media (Stellaria media; [8]): 0 (Herbicidal ratio of 5% or lower (almost no effect)); g: rapeseed, effect on crop grade (rapeseed): 4 (Herbicidal ratio of 70% or higher and lower than 90%); Herbicidal effect grade, G: Setaria viridis (Setaria viridis [7]; [8]): 1 (Herbicidal ratio of 5% or higher and lower than 20%)
CC(CC1CC(O)=C(c2c(C)cc(C)cc2C)C1=O)=NOCC1OCCO1 (stereo not drawn) [1-111] | 2 (Herbicidal ratio of 20% or higher and lower than 40%) | 3 (Herbicidal ratio of 40% or higher and lower than 70%) | 5 (Herbicidal ratio of 90% or more (almost completely withered)) | 2 (Herbicidal ratio of 20% or higher and lower than 40%) | 5 (Herbicidal ratio of 90% or more (almost completely withered)) | 5 (Herbicidal ratio of 90% or more (almost completely withered)) | 5 (Herbicidal ratio of 90% or more (almost completely withered)) | 0 (Herbicidal ratio of 5% or lower (almost no effect)) | 0 (Herbicidal ratio of 5% or lower (almost no effect)) | 0 (Herbicidal ratio of 5% or lower (almost no effect)) | 5 (Herbicidal ratio of 90% or more (almost completely withered)) | 1 (Herbicidal ratio of 5% or higher and lower than 20%) | 0 (Herbicidal ratio of 5% or lower (almost no effect)) | 5 (Herbicidal ratio of 90% or more (almost completely withered)) | 5 (Herbicidal ratio of 90% or more (almost completely withered)) |  |  |  |  |  | 

— patent US11000033B2, “Ketone or oxime compound, and herbicide” (NISSAN CHEMICAL CORPORATION, priority 2014, dated 2021)
